The numbers were not newly measured in patent US20020164314A1, “Ovarian hormone induced neural stem cell increase” (Neurostasis, Inc., priority 2001, published 2002), which cites them from elsewhere.

Data set [1] deals with proliferating cells in the dentate gyrus.
The test system of data set [2] is development of female characteristics in animals.
[3] abbreviates: corticosterone, Alonso 2000, adult rats.

As to `C[C@]12C[C@H](O)[C@H]3[C@@H](CCC4=CC(=O)CC[C@@]43C)[C@@H]1CC[C@@H]2C(=O)CO` [corticosterone], in data set [1] (setting [3]), the “cell proliferation in the dentate gyrus” value is recorded as “dramatically decreases”. In addition, the “effect on the SVZ proliferating cells” value in the data set with SVZ proliferating cells (setting [3]) is “no effect”.

Consider Estrogen, for which, in data set [1] (Tanapat et al. 1999, adult female), the “number of new neurons in the dentate gyrus” value is reported as “transient increase”. Also, the “proliferation in the dentate gyrus” value in data set [1] (Tanapat et al. 1999, adult female rat) is “stimulate proliferation”. Besides, the “mitotic activity in the subventricular zone” value in the data set on SVZ proliferating cells (Tanapat et al. 1999) is “no mitotic activity”.

Consider `C[C@]12CC[C@@H]3c4ccc(O)cc4CC[C@H]3[C@@H]1CC[C@@H]2O` [β-estradiol], for which, in data set [2] (ratio versus estriol), the “estrogenic potency relative to estriol” value is 80 times. Moreover, the “estrogenic potency relative to estrone” value in data set [2] (ratio versus estrone) is reported as 12 times.
